Experimental data as given in patent US7989464B2, “mGluR1 antagonists as therapeutic agents” (Schering Corporation, priority 2004, dated 2011).
pIC50: −log10 of the molar value. Where two headings read alike, the source gives them in different places.

Target: T1, hmGluR1 receptor (Homo sapiens, UniProt Q13255)
T1 construct: expressed in transfected cells
Test: IC50 determination: intracellular calcium mobilization (FLIPR) upon Quisqualate stimulation in CHO cells stably expressing hmGluR1
Type: cell-based
Conditions: against Quisqualate 1 μM (EC80)
In short: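 CHO cells stably expressing hmGluR1 were kept overnight in DMEM high glucose with GPT and 1 mM pyruvate, then loaded 2 h with Calcium 3 dye.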

[1] = FLIPR calcium mobilization, read-out: IC50 Class
[2] = class symbols, read-out: mGIuR 1 IC50
[3] = FLIPR calcium mobilization, read-out: mGluR1 IC50

T1 sequence (Q13255 19-1194): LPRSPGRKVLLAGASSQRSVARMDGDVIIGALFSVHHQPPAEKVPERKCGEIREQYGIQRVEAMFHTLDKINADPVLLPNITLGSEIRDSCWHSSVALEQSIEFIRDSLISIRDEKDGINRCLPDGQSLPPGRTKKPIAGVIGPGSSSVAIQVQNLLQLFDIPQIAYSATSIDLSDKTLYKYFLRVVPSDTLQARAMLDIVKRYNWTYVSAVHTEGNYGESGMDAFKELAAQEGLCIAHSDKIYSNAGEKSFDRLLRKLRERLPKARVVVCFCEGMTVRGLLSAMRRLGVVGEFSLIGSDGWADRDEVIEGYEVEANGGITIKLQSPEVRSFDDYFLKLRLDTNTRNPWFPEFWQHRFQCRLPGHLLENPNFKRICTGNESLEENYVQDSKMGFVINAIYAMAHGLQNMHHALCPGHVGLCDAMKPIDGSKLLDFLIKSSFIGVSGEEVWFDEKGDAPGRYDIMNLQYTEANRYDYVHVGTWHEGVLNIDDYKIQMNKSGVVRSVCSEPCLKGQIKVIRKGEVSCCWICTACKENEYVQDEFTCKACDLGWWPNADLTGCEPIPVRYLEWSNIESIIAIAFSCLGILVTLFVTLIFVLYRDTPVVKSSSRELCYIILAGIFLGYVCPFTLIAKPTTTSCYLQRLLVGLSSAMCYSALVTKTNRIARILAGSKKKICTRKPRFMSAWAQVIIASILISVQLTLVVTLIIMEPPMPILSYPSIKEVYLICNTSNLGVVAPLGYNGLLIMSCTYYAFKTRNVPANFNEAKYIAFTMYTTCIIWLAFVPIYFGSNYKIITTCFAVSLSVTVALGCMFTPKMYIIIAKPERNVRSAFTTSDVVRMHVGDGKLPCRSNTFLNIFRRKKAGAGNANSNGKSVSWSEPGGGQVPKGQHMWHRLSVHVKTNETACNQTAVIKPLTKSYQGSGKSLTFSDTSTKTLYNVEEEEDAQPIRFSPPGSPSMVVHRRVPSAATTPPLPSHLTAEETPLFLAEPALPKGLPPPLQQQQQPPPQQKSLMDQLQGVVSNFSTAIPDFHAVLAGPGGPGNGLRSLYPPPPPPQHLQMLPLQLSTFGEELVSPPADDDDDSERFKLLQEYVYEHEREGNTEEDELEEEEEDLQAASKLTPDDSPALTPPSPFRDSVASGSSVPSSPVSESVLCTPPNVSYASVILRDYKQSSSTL

Structure (SMILES) | pIC50 [1] | pIC50 [2] | further results
C#CCNc1ccnc2sc3c(=O)n(-c4ccc(OC)c(F)c4)cnc3c12 [28DW] | > 7.30 | – | –
CC(C)(C)Nc1ccnc2sc3c(=O)n(-c4ccc(Cl)cc4)cnc3c12 [28EP] | 6.00 to 6.82 | – | –
O=c1c2sc3nccc(NCCO)c3c2ncn1C1CCCCC1 [28AG] | – | 6.82 to 7.30 | –
CN(C)c1ccnc2sc3c(=O)n(-c4ccccn4)cnc3c12 [7U] | – | 6.82 to 7.30 | –
COCCn1cnc2c(sc3nccc(N(C)C)c32)c1=O [15D] | – | < 6.00 | –
O=c1c2sc3c(ccc[n+]3[O-])c2ncn1-c1ccccc1 [12A] | – | 6.00 to 6.82 | –
CCCN(CCC)c1ccnc2sc3c(=O)n(C4CCCCC4)cnc3c12 [28K] | – | < 6.00 | –
Cc1ccc(-n2cnc3c(sc4nccc(NCC5CCCO5)c43)c2=O)cc1 (centres unmarked) [28ET] | 6.82 to 7.30 | – | –
CCc1ccnc2sc3c(=O)n(-c4ccc(C)cc4)cnc3c12 [29G] | > 7.30 | – | –
CN(C)c1ccnc2sc3c(=O)n(Cc4cccc(Cl)c4)cnc3c12 [7R] | – | 6.00 to 6.82 | –
Cc1ccc(-n2cnc3c(sc4nccc(O)c43)c2=O)cc1 [26C] | – | < 6.00 | –
CNc1ccnc2sc3c(=O)n(-c4cccc(Br)c4)cnc3c12 [28CS] | 6.82 to 7.30 | – | –
Cc1ccc(-n2cnc3c(sc4ncc(Br)c(Cl)c43)c2=O)cc1 [compound 171] | < 6.00 | – | –
CCN(C)c1ccnc2sc3c(=O)n(-c4ccc(OC)cc4F)cnc3c12 [28BW] | > 7.30 | – | –
CN(C)c1c(C=O)cnc2sc3c(=O)n(C4CCCCC4)cnc3c12 [compound 45] | – | > 7.30 | –
C=C(C)CNc1ccnc2sc3c(=O)n(-c4ccc5c(c4)OCCO5)cnc3c12 [28FF] | 6.00 to 6.82 | – | –
CCCNc1ccnc2sc3c(=O)n(-c4ccc(OC)cc4)cnc3c12 [28AR] | – | > 7.30 | –
Cc1ccc(Nn2cnc3c(sc4nccc(N(C)C)c43)c2=O)cc1 [60C] | – | > 7.30 | –
Cc1ccc(-n2cnc3c(sc4ncc(Br)c(NCCN)c43)c2=O)cc1 [28FM] | 6.00 to 6.82 | – | –
CN(C)c1ccnc2sc3c(=O)n(-c4ccc(CO)cc4)cnc3c12 [7AY] | – | > 7.30 | –

Structure (SMILES) | pIC50 [1] | pIC50 [2] | further results
O=c1c2sc3nccc(NCCCCO)c3c2ncn1-c1ccc(F)cc1 [28GU] | > 7.30 | – | –
CCN(C)c1ccnc2sc3c(=O)n(-c4ccc(Cl)cc4)cnc3c12 [28IC] | > 7.30 | – | pIC50 [3]: 8.68
CN(C)c1ccnc2sc3c(=O)n(-c4ccc(CC#N)cc4)cnc3c12 [7BC] | – | < 6.00 | –
CN(CCO)c1ccnc2sc3c(=O)n(-c4ccc5occc5c4)cnc3c12 [28BE] | > 7.30 | – | –
CN(C)c1ccnc2sc3c(=O)n(-c4nnc(C(F)(F)F)s4)cnc3c12 [15AF] | – | 6.00 to 6.82 | –
CN(C)c1ccnc2sc3c(=O)n(-c4ccc5[nH]nnc5c4)cnc3c12 [7AO] | – | 6.00 to 6.82 | –
C#CC(C)Nc1ccnc2sc3c(=O)n(-c4ccc(OC)cc4)cnc3c12 (centres unmarked) [28FA] | 6.00 to 6.82 | – | –
CCN(C)c1ccnc2sc3c(=O)n(-c4ccc(OC)cc4C)cnc3c12 [28BV] | > 7.30 | – | –
Cc1ccc(-n2cnc3c(sc4nccc(N[C@@H](C)CO)c43)c2=O)cc1 [28DD] | 6.00 to 6.82 | – | –
COc1ccc(-c2c(C(C)=O)c(C)nc3sc4c(=O)n(-c5ccccc5)cnc4c23)cc1 [P-12] | – | 6.00 to 6.82 | –
COc1cc(Br)c(-n2cnc3c(sc4nccc(N(C)C)c43)c2=O)c(Br)c1 [7BX] | – | < 6.00 | –
CN(C)c1ccnc2sc3c(=O)n(-c4ccc(Br)c(F)c4)cnc3c12 [7DV] | – | > 7.30 | pIC50 [3]: 8.77
CC(=O)c1c(C)nc2sc3c(=O)n(-c4ccccc4)cnc3c2c1-c1ccc(Cl)cc1 [P-9] | – | 6.00 to 6.82 | –
CN(C)c1c(C#N)ncc2sc3c(=O)n(-c4ccc(Cl)cc4)cnc3c12 [compound 55] | – | 6.82 to 7.30 | –
COc1cccc(-n2cnc3c(sc4nc(N5CCOCC5)c5c(c43)CC(C)(C)OC5)c2=O)c1 [P-4] | – | 6.00 to 6.82 | –
CCNc1ccnc2sc3c(=O)n(-c4cccc(Br)c4)cnc3c12 [28CR] | 6.82 to 7.30 | – | –
Cc1ccc(-n2cnc3c(sc4nccc(N(C)C)c43)c2=O)cc1I [7DY] | – | 6.82 to 7.30 | –
Cc1ccc(-n2cnc3c(sc4nccc(NCC#N)c43)c2=O)cc1 [28AA] | – | > 7.30 | pIC50 [3]: 8.74
O=c1c2sc3nccc(N4CCOCC4)c3c2ncn1C1CCCCC1 [28O] | – | < 6.00 | –
CCN(C)c1ccnc2sc3c(=O)n(C4CCCCC4)cnc3c12 [28Y] | – | > 7.30 | –

Structure (SMILES) | pIC50 [1] | pIC50 [2] | further results
CN(C)c1ccnc2sc3c(=O)n(N(c4ccccc4)c4ccccc4)cnc3c12 [60J] | – | < 6.00 | –
CCCn1cnc2c(sc3nccc(N(C)C)c32)c1=O [15L] | – | < 6.00 | –
CCNc1c(C#N)cnc2sc3c(=O)n(C4CCCCC4)cnc3c12 [compound 50] | – | 6.00 to 6.82 | –
CCN(C)c1ccnc2sc3c(=O)n(-c4ccc(F)cc4)cnc3c12 [28ID] | > 7.30 | – | –
O=c1c2sc3nccc(C4CCCC4)c3c2ncn1C1CCCCC1 [29B] | – | < 6.00 | –
COCCNc1ccnc2sc3c(=O)n(-c4ccc(C)cc4)cnc3c12 [28AZ] | – | > 7.30 | –
O=c1c2sc3nccc(N4CCCC4)c3c2ncn1-c1ccc(F)cc1 [28GW] | 6.00 to 6.82 | – | –
CNc1ccnc2sc3c(=O)n(C4CCCCC4)cnc3c12 [28X] | – | > 7.30 | –
CCc1ccc(-n2cnc3c(sc4nccc(OC)c43)c2=O)cc1 [25G] | 6.00 to 6.82 | – | –
Cc1ccc(-n2cnc3c(sc4nccc(NCCN(C)C)c43)c2=O)cc1 [28BA] | – | 6.00 to 6.82 | –
CN(C)c1ccnc2sc3c(=O)n(-c4ccc5c(c4)OCO5)cnc3c12 [7A] | – | > 7.30 | –
CN(C)c1ccc(F)c2sc3c(=O)n(C4CCCCC4)cnc3c12 [compound 104] | – | < 6.00 | –
COc1ccc(-n2cnc3c(sc4nc(Cl)cc(NC5CC5)c43)c2=O)cc1 [57D] | 6.00 to 6.82 | – | –
C=Cc1ccnc2sc3c(=O)n(-c4ccc(Cl)cc4)cnc3c12 [29E] | > 7.30 | – | –
O=c1c2sc3nccc(NCCCO)c3c2ncn1-c1ccc(Br)cc1 [28GQ] | > 7.30 | – | pIC50 [3]: 9.18
COc1cc(-n2cnc3c(sc4nccc(N(C)C)c43)c2=O)ccc1Br [7DT] | – | 6.00 to 6.82 | –
CNc1ccnc2sc3c(=O)n(-c4ccc(OC)c(F)c4)cnc3c12 [7CA] | – | > 7.30 | –
COc1ccc(NC(=O)CSc2nc3c(sc4nc(C)cc(C)c43)c(=O)n2-c2ccc(Cl)cc2)cc1 [P-6] | – | 6.00 to 6.82 | –
COc1ccnc2sc3c(=O)n(-c4ccc(Cl)cc4C)cnc3c12 [28FU] | < 6.00 | – | –
CNc1ccnc2sc3c(=O)n(-c4ccc(O)cc4)cnc3c12 [7CD] | – | > 7.30 | –

The next lines start with results.

pIC50 [1] | pIC50 [2] | Structure (SMILES) | further results
< 6.00 | – | O=c1c2sc3ncnc(Nc4ccccc4)c3c2ncn1-c1ccccc1 [95GC] | –
– | > 7.30 | C=CCOc1ccnc2sc3c(=O)n(-c4ccc(C)cc4)cnc3c12 [66D] | –
– | > 7.30 | CCNc1ccnc2sc3c(=O)n(-c4ccc(O)cc4)cnc3c12 [131B] | –
> 7.30 | – | C#CCOc1ccnc2sc3c(=O)n(-c4ccc(Br)cc4)cnc3c12 [66I] | –
6.00 to 6.82 | – | CC(=O)NN(C)c1ccnc2sc3c(=O)n(-c4ccc(Cl)cc4)cnc3c12 [73H] | –
6.82 to 7.30 | – | C=C(C)CNc1ncnc2sc3c(=O)n(-c4cccc(Cl)c4)cnc3c12 [95FK] | –
– | > 7.30 | CCN(C)c1ncnc2sc3c(=O)n(-c4ccc5c(c4)OCC5)cnc3c12 [95K] | –
– | 6.00 to 6.82 | COc1ccc(-n2cnc3c4c(N(C)C)ccnc4n(C)c3c2=O)cc1 [134B] | –
> 7.30 | – | O=c1c2sc3ncnc(NC4CC4)c3c2ncn1-c1ccc2scnc2c1 [95BA] | –
< 6.00 | – | Cc1ccc(-n2cnc3c(sc4ncc(C(=O)N5CCNCC5)cc43)c2=O)cc1 [205B] | –
> 7.30 | – | C=CCNc1ncnc2sc3c(=O)n(-c4ccc(OC)cc4)cnc3c12 [95GP] | –
6.00 to 6.82 | – | COc1cc(-n2cnc3c(sc4nccc(NC5CC5)c43)c2=O)ccc1F [131N] | –
> 7.30 | – | COc1ccc(-n2cnc3c(sc4ncc(Br)c(N)c43)c2=O)cc1 [173B] | –
– | 6.82 to 7.30 | CCNc1ccnc2sc3c(=O)n(-c4ccc(CC)cc4)cnc3c12 [131F] | –
– | > 7.30 | CN(C)c1ncnc2sc3c(=O)n(-c4ccc(OC(F)F)cc4)cnc3c12 [95Q] | –
– | > 7.30 | CCNc1ncnc2sc3c(=O)n(-c4ccc(SC)cc4)cnc3c12 [95AD] | –
< 6.00 | – | Cc1ccc(-n2cnc3c(sc4ncnc(Nc5ccccc5)c43)c2=O)cc1 [95FW] | –
> 7.30 | – | Cc1ccc(-n2cnc3c(sc4ncnc(NCCCO)c43)c2=O)cc1 [95DL] | –
– | < 6.00 | O=C(Nc1ccnc2sc3c(=O)n(C4CCCCC4)cnc3c12)C1CCC1 [73D] | –

pIC50 [1] | pIC50 [2] | Structure (SMILES) | further results
> 7.30 | – | COCCNc1ncnc2sc3c(=O)n(-c4ccc(C)cc4)cnc3c12 [95DJ] | –
– | > 7.30 | CCNc1ccnc2sc3c(=O)n(-c4ccccc4)c(C)nc3c12 [113F] | –
6.82 to 7.30 | – | C=CCNc1ncnc2sc3c(=O)n(-c4ccc(OC)c(F)c4)cnc3c12 [95BN] | –
> 7.30 | – | O=c1c2sc3ncnc(NCC(F)(F)F)c3c2ncn1-c1ccc(Br)cc1 [95EE] | –
– | 6.82 to 7.30 | CCN(C)c1ncnc2sc3c(=O)n(-c4cccnc4)cnc3c12 [95M] | –
< 6.00 | – | COc1ccc(-n2cnc3c(sc4nccc(NC5CC5)c43)c2=O)cc1Cl [131K] | –
– | < 6.00 | COc1ccc(Cn2c3nccc(N(C)C)c3c3ncn(-c4ccc(C)cc4)c(=O)c32)cc1 [134H] | –
– | > 7.30 | CN(C)c1ccnc2sc3c(=O)n(-c4cccc(C5CC5)c4)cnc3c12 [137B] | –
6.00 to 6.82 | – | C=CCCOc1ccnc2sc3c(=O)n(-c4ccc(Br)cc4)cnc3c12 [66K] | –
< 6.00 | – | CN(C)c1cccc2sc3c(=O)n(-c4ccccc4Cl)cnc3c12 [103G] | –
< 6.00 | – | CN(C)c1cccc2sc3c(=O)n(-c4ccc(Cl)c(Cl)c4)cnc3c12 [103J] | –
– | 6.82 to 7.30 | CCc1cc(N(C)C)c2c(n1)sc1c(=O)n(-c3ccc(C)cc3)cnc12 [87B] | –
< 6.00 | – | Cc1ccc(-n2cnc3c(sc4ncnc(Nc5ccccc5)c43)c2=O)cc1F [95GB] | –
> 7.30 | – | C=CCNc1ncnc2sc3c(=O)n(-c4ccc5scnc5c4)cnc3c12 [95BM] | –
< 6.00 | – | COc1ccc(Nc2ncnc3sc4c(=O)n(C)cnc4c23)cc1 [95GN] | –
– | < 6.00 | O=C(Nc1ccnc2sc3c(=O)n(C4CCCCC4)cnc3c12)c1ccco1 [73E] | –
6.00 to 6.82 | – | Cc1ccc(-n2cnc3c(sc4ncc(C(N)=O)cc43)c2=O)cc1 [205C] | –
> 7.30 | – | Cc1nc(N)c2c(n1)sc1c(=O)n(-c3ccccc3)cnc12 [95EX] | –
